Holding throughout (type): cell-based
One test relates to TMD8. The test is described as follows: CellTiter-Glo viability assay at 96 h (Example 5). The settings on record: Homo sapiens. How it is done:
(§1) Growth inhibition to Idelalisib or other inhibitors was assessed using CellTiter-Glo viability assay at 96 h. […] Cell lines were analyzed by whole exome sequencing, RNASeq, and phosphoproteomics. Protein expression was measured using Simple Western and SDS/PAGE and western blot. Caspase 3/7 was measured using Caspase-Glo 3/7 assay; apoptosis was measured with Annexin V assay and propidium iodide by flow cytometry.
(§2) Cell viability EC50 was determined using a sigmoidal dose-response (variable slope) curve generated from quadruplicate samples. Statistical significance was determined using the student's t-test for cell viability and two-tailed paired t-test for apoptosis experiments in Prism (GraphPad).

A further test concerns FSCCL (WSU-FSCCL). In words: CellTiter Glo viability assay after 96 h. Particulars: read-out: EC50, cell viability. The protocol:
(§3) Idelalisib resistance was established by continuous passaging of a clonal isolate of WSU-FSCCL in the presence of 1 μM idelalisib; clonal isolates from a passage-matched line (FSCCL^S) and idelalisib-resistant line (FSCCL^R) were generated through 2 rounds of single-cell-limiting dilution. Growth inhibition to idelalisib or other inhibitors was performed after 96 h using CellTiter Glo viability assay. Characterization of mutations and gene expression were identified by whole exome sequencing and RNA-Seq, respectively. Whole cell lysates were analyzed by western blots.

Another test has as its system TMD8^R cells. The test is described as follows: Apoptosis, Annexin V assay and propidium iodide by flow cytometry. Particulars: Annexin V at 48 h, Idelalisib=1 μM. How it is done:
as §1
On the technique in general: A flow cytometer gives signals particle by particle.

Test [1] has as its system TMD8^R (Idelalisib-resistant line). In words: CellTiter-Glo viability assay at 96 h. Particulars: read-out: EC50, cell viability. How it is done:
as §1, §2
(§4) Idelalisib-resistant (TMD8^R) cell line and passage-matched Idelalisib-sensitive (TMD8^S) cell line were generated according to the procedure described in Example 5 above. To characterize the resistant cells, cell viability assays, RNASeq of multidrug resistance (MDR) family of ABC transporter genes (N=33), apoptosis assays, and phosphoprotein analysis were performed. Cell viability was measured using CellTiter-Glo, as described in Example 1A above. Western blot and protein level analysis were performed after treatment with 420 nM idelalisib, 320 nM Compound B and combination thereof, using Peggy Sue (ProteinSimple) automated Western Blot system. Protein concentration (pg/μL) was quantitated using recombinant protein standards. Normalized AUC were determined for each of the treatment groups, normalized to actin. Apoptosis was assessed by propidium iodide and Annexin V/FITC staining and measured by flow cytometry, as described in Example 1A above. Western Blot with anti-p-AKT (S473) antibody and Peggy Sue were used to determine the phosphorylation state of downstream signaling components.

For test [2], the system named is TMD8^S (DMSO passage matched, idelalisib-sensitive line). The test is described as follows: CellTiter-Glo viability assay at 96 h. Particulars: read-out: EC50, cell viability. The protocol:
as §1, §2, §4

The next test has as its system OCI-LY10 cells. In words: CellTiter-Glo cell viability assay, four days (Example 1A). Particulars: OCI-LY10; single agent. How it is done: (§5) In vitro anti-proliferative activity of agents was assessed using CellTiter-Glo™ Assay (Promega), which quantifies cellular ATP level. Test compounds were dissolved in DMSO to prepare 10 mM stock solutions. […] For drug combination studies, a two or three fold horizontal serial dilution pattern was used for Compound B and combined with Idelalisib using a two, three, or four fold vertical serial dilution pattern. […] The final DMSO concentration in the test media was 0.2%. Each combination used replicates of four plates to generate sufficient data for evaluation of synergy scores. […] The assay growth medium for all lines was RPMI supplemented with 20% FBS and […] penicillin-streptomycin. Seeding density was optimized for growth rate over 96 hours for each cell line and was between 10,000-30,000 cells per well of 96 well plates. After four days incubation with agents at 37° C./5% CO2, the CellTiter-Glo™ assay was performed following the manufacturer's protocol. Relative luminescence units were quantified using a Biotek Synergy luminometer.
(§6) Data from a plate was excluded if either Z′<0.5 or the growth of the cell lines was less than one doubling in the four day assay period. Z′ was calculated using the formula: Z′=[1−((3(σstau+σDMSO))/(|μDMSO−μstau|)] where σstau and σDMSO are the standard deviation of the 100% inhibited staurosporine and 0% inhibited DMSO control wells, respectively. μDMSO and μstau are the mean of the […] control wells, respectively. The raw Cell Titer Glo signal was normalized according to the following formula: [(raw value)−(100% inhibited staurosporine control)]/[(DMSO control value)−(100% inhibited staurosporine control)].
(§7) EC50 was determined using GraphPad Prism or Dose Response software by fitting the data to a four parameters variable slope model. […] For combination studies, the EC50 at each test article concentration was determined from graphs of the EC50 of one compound at a fixed dose of second compound. The EC50 shift was calculated by taking the ratio of the EC50 of the single agent by the EC50 at the maximum dose of the second agent.
(§8) Synergy was analyzed using the MacSynergy II program, which calculates a theoretical additive value for the drug combination that is based on the values generated by each drug alone using the Bliss Independence mathematical model. The Bliss independence model assumes that each drug acts independently. The theoretical additive effect for each compound is calculated and then subtracted from the actual effect. Synergy is defined by greater than expected effects while antagonism is defined by less than expected effects. In this example, a synergy volume greater than 50 was considered significant. The EC50 values determined in drug combination studies represent a single experiment run in quadruplicate and therefore may differ slightly from the single agent EC50 values.
For orientation: In ATP-based viability assays light output follows the ATP content of the culture.

Another test has as its system TMD-8 cells. Described as above. Particulars: TMD-8; single agent. The protocol:
as §5, §6, §7, §8

A further test has as its system Ri-1 cells. The description is as above. The settings on record: Ri-1; single agent. The protocol: as §5, §6, §7, §8
Another test relates to FSCCL^S. In words: CellTiter Glo viability assay after 96 h. Particulars: read-out: EC50. How it is done: as §3
The next test deals with FSCCL^R SFK^HIGH. In words: CellTiter Glo viability assay after 96 h. How it is done:
as §3

Test [3] concerns FSCCL^R clone 1 (PI3KCA E970K). The test is described as follows: CellTiter Glo viability assay after 96 h. How it is done:
as §3

The test system of test [4] is FSCCL^R clone 2 (PI3KCA N345K). In words: CellTiter Glo viability assay after 96 h. How it is done: as §3
In test [5] the test system is FSCCL^R clone 3 (PI3KCA P539R). The test is described as follows: CellTiter Glo viability assay after 96 h. How it is done:
as §3

Where [6] appears, read: FIGS. 11A, 13A, printed with 1 μM of each named agent.
The mark [7] stands for this setting: read-out: EC50 BYL-719 (+IDELA 0.6 μm).

Usually EC50 stands for the concentration giving half of the maximal effect.

Molecules are shown by their SMILES. Read-outs that look alike come from different tables or passages of the source.

As to `Cc1cc([C@@H](C)Nc2ccccc2C(=O)O)c2nc(N3CCOCC3)cc(=O)n2c1` [AZD-6482], the values for the EC50 with TMD8 and in the test on FSCCL (WSU-FSCCL) were 520 nM and 4600 nM, respectively.
In the test on TMD8^R cells (MK-2206=1 μM, vehicle control 24%), `NC1(c2ccc(-c3nc4ccn5c(=O)[nH]nc5c4cc3-c3ccccc3)cc2)CCC1` [MK-2206] yielded an apoptosis of 33%. For the same compound, the EC50 in test [1] (setting [6]) is less than 10000 nM.
As for `C=CC(=O)N1CCC[C@@H](n2nc(-c3ccc(Oc4ccccc4)cc3)c3c(N)ncnc32)C1` [Ibrutinib, 1-[(3R)-3-[4-Amino-3-(4-phenoxyphenyl)-1H-pyrazolo[3,4-d]pyrimidin-1-yl]piperidin-1-yl]prop-2-en-1-one], the EC50 in test [2] (unit inferred) came to 0.5 nM. In addition, the “growth of cell line” value in the test on OCI-LY10 cells, with TMD-8 cells and with Ri-1 cells was “inhibited the growth” in each case.
With `Cc1nc(Nc2ncc(C(=O)Nc3c(C)cccc3Cl)s2)cc(N2CCN(CCO)CC2)n1` [Dasatinib], the concentration giving a half-maximal response (EC50) in the test with FSCCL^S (Table 14, single agent) turned out to be 34 nM; in the test with FSCCL^R SFK^HIGH (read-out: EC50 Dasatinib (+IDELA 600 nM)), 15 nM; with FSCCL^R SFK^HIGH (single agent, read-out: EC50 Dasatinib) it was 58 nM.
For the compound `CNc1nc(-c2ccc3c(N)n[nH]c3c2)cc(N2C[C@@H](C(=O)NC3CCCCC3)CC[C@H]2C)n1` [GSK-2334470], the apoptosis in the test on TMD8^R cells (GSK-2334470=1 μM, vehicle control 22%) is reported as 21%. The EC50 in test [1] (setting [6]) was less than 10000 nM.
`CS(=O)(=O)N1CCN(Cc2cc3nc(-c4cccc5[nH]ncc45)nc(N4CCOCC4)c3s2)CC1` [GDC-0941] came in with a concentration for a half-maximal effect (EC50) in the test with TMD8 of 27 nM.
Regarding `C[C@H](Nc1nc[nH]c2ncnc1-2)c1cc2cccc(Cl)c2c(=O)n1-c1ccccc1` [Duvelisib, 8-Chloro-2-phenyl-3-[(1S)-1-(3H-purin-6-ylamino)ethyl]-1(2H)-isoquinolinone], the concentration for a half-maximal effect (EC50) in test [1] (TMD8^R, single agent) is greater than 4000 nM; in test [2] (single agent) it was 580 nM.
Regarding `Cc1nc(NC(=O)N2CCC[C@H]2C(N)=O)sc1-c1ccnc(C(C)(C)C(F)(F)F)c1` [BYL-719], the concentration giving a half-maximal response (EC50) in the test with TMD8 came out at 1200 nM; in [3] (setting [7]), 123 nM; in [3] (single agent, read-out: EC50), 2120 nM; in the test with FSCCL^S (PI3KCA WT, Table 13, single agent), 1610 nM; in test [4] (setting [7]), 143 nM; in test [4] (single agent, read-out: EC50) it was 1540 nM. The 50% effective concentration (EC50) in the test on FSCCL (WSU-FSCCL) is greater than 10000 nM; in [5] (setting [7]), 239 nM; in test [5] (single agent, read-out: EC50), greater than 3000 nM.
Turning to `c1cn2cc(-c3ccc4cn[nH]c4c3)nc(Nc3ccc(N4CCOCC4)cc3)c2n1` [ENTO], the EC50 in the test on FSCCL^S (Table 15, single agent) turned out to be 1800 nM; with FSCCL^R SFK^HIGH (read-out: EC50 ENTO (+IDELA 600 nM)), 1920 nM.

The values above are taken from patent US20180353512A1, “COMBINATION THERAPIES FOR TREATING B-CELL MALIGNANCIES” (GILEAD SCIENCES, INC., priority 2015, published 2018).
